Data on eight compounds can be found in ChEMBL document CHEMBL5584281, “Toward Precision Oncology: The Role of TPD in Targeting CDK2 and Beyond” (ACS Med Chem Lett, 2024).

For the assay, the target named is Cyclin-dependent kinase 2 (Homo sapiens, UniProt P24941). Put plainly: Inhibition of CDK2 in human OVCAR-3 cells assessed as inhibition of retinoblastoma protein phosphorylation at S807/811 residues measured after 24 hrs by TR-FRET assay. The format is cell-based. On the technique in general: Time-resolved FRET reads energy transfer from a long-lived donor to a nearby acceptor.
As to `O=C1CCC(N2C(=O)c3cc(F)c(N4CC5(CN(Cc6cccc(S(=O)(=O)N7CCC(Nc8ncc(C(F)(F)F)c(-c9cnn(CC(F)(F)F)c9)n8)CC7)c6)C5)C4)cc3C2=O)C(=O)N1` (stereo not drawn), the IC50 (as a rule, the point on the concentration scale where inhibition reaches its midpoint) is less than 100 nM. Regarding `O=C1CCC(N2Cc3ccc(N4CCC5(CCN(Cc6cccc(S(=O)(=O)N7CCC(Nc8ncc(C(F)(F)F)c(-c9cnn(CC(F)(F)F)c9)n8)CC7)c6)CC5)CC4)cc3C2=O)C(=O)N1` (stereo not drawn), the IC50 was less than 100 nM. In the case of `Cn1nc(N2CCC(=O)NC2=O)c2cc(C3CCN(Cc4cccc(S(=O)(=O)N5CCC(Nc6ncc(C(F)(F)F)c(-c7cnn(CC(F)(F)F)c7)n6)CC5)c4)CC3)ccc21` it was less than 100 nM.

`Cn1nc(N2CCC(=O)NC2=O)c2ccc(C3CCN(CC4CCN(S(=O)(=O)N5CCC(Nc6ncc(C(F)(F)F)c(-c7cnn(CC(F)(F)F)c7)n6)CC5)CC4)CC3)cc21`: the IC50 was less than 100 nM. In the case of `O=C1CCC(N2C(=O)c3cc(F)c(N4CCN(Cc5cccc(S(=O)(=O)N6CCC(Nc7ncc(Cl)c(-c8cnn(CC(F)(F)F)c8)n7)CC6)c5)CC4)cc3C2=O)C(=O)N1` (stereo not drawn) it was less than 100 nM; in that of `O=C1CCC(N2Cc3cc(C4CN(Cc5cccc(S(=O)(=O)N6CCC(Nc7ncc(C(F)(F)F)c(-c8cnn(CC(F)(F)F)c8)n7)CC6)c5)C4)ccc3C2=O)C(=O)N1` (stereo not drawn), less than 100 nM; in that of `Cn1nc(N2CCC(=O)NC2=O)c2ccc(C3CCN(Cc4cccc(S(=O)(=O)N5CCC(Nc6ncc(C(F)(F)F)c(-c7cnn(-c8ccccc8F)c7)n6)CC5)c4)CC3)cc21`, no more than 100 nM. To `O=C1CCC(c2ccc(N3CCN(Cc4cccc(S(=O)(=O)N5CCC(Nc6ncc(C(F)(F)F)c(-c7cnn(CC(F)(F)F)c7)n6)CC5)c4)CC3)cc2)C(=O)N1` (stereo not drawn) belongs less than 100 nM.
